Assay results taken from patent US20190365641A1, “RAPIDLY DISINTEGRATING FORMULATIONS AND METHODS OF USE” (Impax Laboratories, Inc., priority 2013, published 2019).
Converted amounts (≈) assume the structure as drawn. “And” between values parts separate entries of the source, which are not always exact repeats. Identical values can stand only once. Counter-ions that a name gives are not always drawn. Like-named read-outs stand apart in the source and are kept apart here. Each block holds one compound with its values, some of them ahead of it.

Columns and labels:
[1] = Solubility of apomorphine in phosphate buffers at varying pH (Example 14); format: physicochemical; conditions: stirred ~18 hours
Protocol: The testing procedure was as followings: • 1. […] The samples were stirred for ˜18 hours before analysis. • 4. […] The samples were stirred for ˜18 hours before analysis. • 5. After stirring ˜2mL of the supernatant was obtained from each vial and centrifuge at 12000 RPM to precipitate un-dissolved drug. • 6. After centrifugations, approximately 1 mL of the supernatant was diluted with approximately 50 mL of water: methanol: H3PO4 (50:50:1.2 v/v) for HPLC analysis according to the procedure described in Example 13 above.

[2] = Dissolution in simulated saliva media (Example 15); format: physicochemical; conditions: simulated saliva pH 6.2, 37° C., two samples per time point, hydrochloride
Protocol: The dissolution of the composition as described in Example 5 was compared to the dissolution of USP grade apomorphine hydrochloride. The following procedure was employed to obtain the dissolution profiles: • 1.
• 3. Approximately 5 mL or 10 mL of pre-warmed simulated saliva was added to the vials of step 2 according to the table above, and a stop watch was started. The vials with the media were gently swirled to allow the powder in the vials to go into solution. • 4. At specific time points, samples of the media were withdrawn from the vials of step 3 and transferred into the barrel of a 10 mL syringe with a […] filter attached to the tip of the syringe. The solution was pushed through the filter and collected for HPLC assay according to the procedure described in Example 13 above. • 5. For sample time points longer than 5 minutes the vials of step 3 were placed in a 37° C. incubator and shaken at 50 rpms until the collection time point.

[3] = subcutaneous injections, on-off fluctuations in Parkinson's disease; cited from earlier work
[4] = sublingual apomorphine tablets, prolonged use; cited from earlier work

solubility ([1]; pH 2.50 phosphate buffer, unit assumed): 9200 µg/mL (≈ 34.4 mM)
solubility ([1]; pH 3.00 phosphate buffer, unit assumed): 3700 µg/mL (≈ 13.8 mM)
solubility ([1]; pH 4.00 phosphate buffer, unit assumed): 2700 µg/mL (≈ 10.1 mM)
solubility ([1]; pH 5.00 phosphate buffer, unit assumed): 2500 µg/mL (≈ 9.35 mM)
solubility ([1]; pH 6.00 phosphate buffer, unit assumed): 2000 µg/mL (≈ 7.48 mM)
solubility ([1]; pH 6.20 phosphate buffer, unit assumed): 1700 µg/mL (≈ 6.36 mM)
solubility ([1]; pH 6.40 phosphate buffer, unit assumed): 1700 µg/mL (≈ 6.36 mM)
solubility ([1]; pH 6.60 phosphate buffer, unit assumed): 1300 µg/mL (≈ 4.86 mM)
solubility ([1]; pH 6.80 phosphate buffer, unit assumed): 1200 µg/mL (≈ 4.49 mM)
solubility ([1]; pH 7.00 phosphate buffer, unit assumed): 670 µg/mL (≈ 2.51 mM)
solubility ([1]; pH 7.40 phosphate buffer, unit assumed): 400 µg/mL (≈ 1.5 mM)
solubility ([1]; pH 8.00 phosphate buffer, unit assumed): 120 µg/mL (≈ 0.449 mM)
SMILES: CN1CCc2cccc3c2[C@H]1Cc1ccc(O)c(O)c1-3 [Apomorphine Free Base, 6αβ-aporphine-10, 11 diol]

dissolution ([2]; 0.5 min): 30.52% and 27.73%
dissolution ([2]; 1 min): 34.58% and 30.24%
dissolution ([2]; 5 min): 57.54% and 46.57%
dissolution ([2]; 10 min): 46.00% and 52.29%
dissolution ([2]; 30 min): 53.23% and 74.97%
dissolution ([2]; Initial): 22.75% and 19.05%
solubility ([1]; pH 2.50 phosphate buffer, hydrochloride, unit assumed): 22800 µg/mL
solubility ([1]; pH 3.00 phosphate buffer, hydrochloride, unit assumed): 21600 µg/mL
solubility ([1]; pH 4.00 phosphate buffer, hydrochloride, unit assumed): 20000 µg/mL
solubility ([1]; pH 5.00 phosphate buffer, hydrochloride, unit assumed): 18800 µg/mL
solubility ([1]; pH 6.00 phosphate buffer, hydrochloride, unit assumed): 7400 µg/mL
solubility ([1]; pH 6.20 phosphate buffer, hydrochloride, unit assumed): 7200 µg/mL
solubility ([1]; pH 6.40 phosphate buffer, hydrochloride, unit assumed): 3700 µg/mL
solubility ([1]; pH 8.00 phosphate buffer, hydrochloride, unit assumed): 270 µg/mL
solubility ([1]; phosphate buffer, pH 6.6, aqueous buffer, thermodynamic from solid, pH 6.60 phosphate buffer, read-out: solubility): 1900 µg/mL
solubility ([1]; phosphate buffer, pH 6.8, aqueous buffer, thermodynamic from solid, pH 6.80 phosphate buffer, read-out: solubility): 1400 µg/mL
solubility ([1]; phosphate buffer, pH 7, aqueous buffer, thermodynamic from solid, pH 7.00 phosphate buffer, read-out: solubility): 1000 µg/mL
solubility ([1]; phosphate buffer, pH 7.4, aqueous buffer, thermodynamic from solid, pH 7.40 phosphate buffer, read-out: solubility): 610 µg/mL
SMILES: CN1CCc2cccc3c2[C@H]1Cc1ccc(O)c(O)c1-3 [Apomorphine HCl, apomorphine hydrochloride]

SMILES: CN1CCc2cccc3c2[C@H]1Cc1ccc(O)c(O)c1-3 [apomorphine, 6αβ-aporphine-10, 11 diol]
duration of effect [3]: 45 to 90 min
time to effect after administration [3]: 5 to 15 min
patients with buccal mucosal ulceration (severe stomatitis) [4]: approximately 30%
